From patent US6878707B2, “Carboxamides useful as inhibitors of microsomal triglyceride transfer protein and of apolipoprotein b secretion” (Novartis AG, priority 2001, dated 2005) come the findings set out here.

One may read the IC50 as the concentration at which inhibition is half-maximal. Low values mean greater potency, high ones weaker potency. One may read the melting point as the temperature of the solid-liquid transition.

The subject of the first data set is apolipoprotein B (apo B) secretion. Nature of the data set: apo B assay. Type of data set: cell-based.
Details: not given
The source says: (§1) The corresponding relevant subject matter of said PCT application is herewith incorporated by reference into the present specification.
Regarding `COC(=O)N1CCN([C@@H]2Cc3ccc(NC(=O)c4cccc(C)c4-c4ccc(C(F)(F)F)cc4)cc3C2)CC1` [Example 14, (R)-6-Methyl-4′-trifluoromethyl-1,1′-biphenyl-N-[2-[4-(methoxycarbonyl)-piperazino]indan-5-yl]-2-carboxamide], the half-inhibitory concentration (IC50) is around 2 nM.

For the next data set, the target named is microsomal triglyceride transfer protein (MTP) (Homo sapiens, UniProt P55157). Briefly: MTP assay. Type of data set: biochemical.
Sequence of microsomal triglyceride transfer protein (MTP) (P55157 19-894, species assumed): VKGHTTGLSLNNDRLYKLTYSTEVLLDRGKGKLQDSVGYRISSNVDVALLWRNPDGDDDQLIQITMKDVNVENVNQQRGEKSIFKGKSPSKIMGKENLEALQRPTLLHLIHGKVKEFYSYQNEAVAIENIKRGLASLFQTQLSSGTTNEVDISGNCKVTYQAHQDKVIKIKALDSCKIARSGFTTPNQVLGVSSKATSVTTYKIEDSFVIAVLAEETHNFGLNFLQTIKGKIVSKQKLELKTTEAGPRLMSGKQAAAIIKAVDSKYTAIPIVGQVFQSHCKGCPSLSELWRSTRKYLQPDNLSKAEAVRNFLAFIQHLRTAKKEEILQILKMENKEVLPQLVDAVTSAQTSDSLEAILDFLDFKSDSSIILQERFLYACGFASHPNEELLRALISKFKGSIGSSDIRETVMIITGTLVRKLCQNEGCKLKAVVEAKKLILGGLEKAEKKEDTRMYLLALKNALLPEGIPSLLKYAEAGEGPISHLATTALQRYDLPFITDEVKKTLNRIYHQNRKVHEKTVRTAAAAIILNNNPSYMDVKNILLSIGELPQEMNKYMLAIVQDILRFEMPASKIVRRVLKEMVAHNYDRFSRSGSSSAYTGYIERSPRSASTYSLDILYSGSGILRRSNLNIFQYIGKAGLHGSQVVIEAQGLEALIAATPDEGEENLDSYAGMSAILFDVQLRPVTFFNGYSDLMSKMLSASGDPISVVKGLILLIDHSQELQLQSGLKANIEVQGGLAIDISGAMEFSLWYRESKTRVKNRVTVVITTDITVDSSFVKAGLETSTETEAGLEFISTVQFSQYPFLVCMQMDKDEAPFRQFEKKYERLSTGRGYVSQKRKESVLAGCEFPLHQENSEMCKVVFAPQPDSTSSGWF
Sequence of microsomal triglyceride transfer protein (MTP) (P07237 18-508 partner, species assumed): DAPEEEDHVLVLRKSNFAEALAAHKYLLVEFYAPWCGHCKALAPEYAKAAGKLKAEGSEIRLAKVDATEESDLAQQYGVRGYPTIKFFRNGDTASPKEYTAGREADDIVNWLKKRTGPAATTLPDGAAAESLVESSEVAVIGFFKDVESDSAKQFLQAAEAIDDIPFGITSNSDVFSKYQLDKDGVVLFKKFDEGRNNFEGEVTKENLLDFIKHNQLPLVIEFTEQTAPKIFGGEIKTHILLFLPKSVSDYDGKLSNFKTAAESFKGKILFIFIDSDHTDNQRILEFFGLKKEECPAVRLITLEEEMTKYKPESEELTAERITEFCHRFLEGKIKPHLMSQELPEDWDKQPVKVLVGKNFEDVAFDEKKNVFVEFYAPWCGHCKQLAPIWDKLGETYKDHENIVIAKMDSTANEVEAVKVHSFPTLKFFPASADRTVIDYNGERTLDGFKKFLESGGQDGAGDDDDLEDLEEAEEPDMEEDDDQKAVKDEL
Details: not given
Source text: as §1
With `COC(=O)N1CCN([C@@H]2Cc3ccc(NC(=O)c4cccc(C)c4-c4ccc(C(F)(F)F)cc4)cc3C2)CC1` [Example 14, (R)-6-Methyl-4′-trifluoromethyl-1,1′-biphenyl-N-[2-[4-(methoxycarbonyl)-piperazino]indan-5-yl]-2-carboxamide], the IC50 was around 40 nM.

Test system in another data set: not given
Assay: not given
Details: not given
As to `COC(=O)N1CCN(C2Cc3ccc(NC(=O)c4cccc(C)c4-c4ccc(C(F)(F)F)cc4)cc3C2)CC1` (racemic) [Example 1, 6-Methyl-4′-trifluoromethyl-1,1′-biphenyl-N-[2[4-(methoxycarbonyl)-piperazino]-indan-5-yl]-2-carboxamide], the melting point was 161 to 163 °C.

The molecule `Cc1cccc(C(=O)Nc2ccc3c(c2)CC(N2CCN(c4ccccc4)CC2)C3)c1-c1ccc(C(F)(F)F)cc1` (stereo not drawn) [Example 2] displayed a melting point of 236 to 238 °C.

Molecule `Cc1cccc(C(=O)Nc2ccc3c(c2)CC(N2CCN(C)CC2)C3)c1-c1ccc(C(F)(F)F)cc1` (stereo not drawn) [Example 3] showed a melting point of 209 to 210 °C.

`Cc1cccc(C(=O)Nc2ccc3c(c2)CC(N2CCN(Cc4ccccc4)CC2)C3)c1-c1ccc(C(F)(F)F)cc1` (stereo not drawn) [Example 4] showed a melting point of 188 to 191 °C.

Take `COC(=O)N1CCN(C2Cc3ccc(NC(=O)c4cccc(C(F)(F)F)c4-c4ccc(C(F)(F)F)cc4)cc3C2)CC1` (stereo not drawn) [Example 5]: the melting point was 210 to 212 °C.

As to `COC(=O)N1CCN(C2Cc3ccc(NC(=O)c4ccccc4-c4ccc(C(F)(F)F)cc4)cc3C2)CC1` (stereo not drawn) [Example 6], the melting point was in the range of 204 to 206 °C.

In turn, `Cc1cccc(C(=O)Nc2ccc3c(c2)CC(N2CCOCC2)C3)c1-c1ccc(C(F)(F)F)cc1` (stereo not drawn) [Example 7] gave a melting point of 201 to 204 °C.

With `O=C(Nc1ccc2c(c1)CC(N1CCOCC1)C2)c1ccccc1-c1ccc(C(F)(F)F)cc1` (stereo not drawn) [Example 8], the melting point lay in the range of 191 to 194 °C.

`COC(=O)C1CCN(C2Cc3ccc(NC(=O)c4cccc(C)c4-c4ccc(C(F)(F)F)cc4)cc3C2)CC1` (stereo not drawn) [Example 9] displayed a melting point of 191 to 195 °C.

`COC1CCN(C2Cc3ccc(NC(=O)c4cccc(C)c4-c4ccc(C(F)(F)F)cc4)cc3C2)CC1` (stereo not drawn) [Example 10] showed a melting point of 197 to 199 °C.

In turn, `Cc1cccc(C(=O)Nc2ccc3c(c2)CC(N2CCC4(CC2)OCCO4)C3)c1-c1ccc(C(F)(F)F)cc1` (stereo not drawn) [Example 11] yielded a melting point of 202 to 203 °C.

Turning to `Cc1cccc(C(=O)Nc2ccc3c(c2)CC(N2CCC(C)CC2)C3)c1-c1ccc(C(F)(F)F)cc1` (stereo not drawn) [Example 12], the melting point is 219 to 221 °C.

`COC(=O)N1CCN(C2Cc3ccc(NC(=O)c4cccc(OC)c4-c4ccc(F)cc4)cc3C2)CC1` (stereo not drawn) [Example 13] came in with a melting point of 132 to 134 °C.

Molecule `COC(=O)N1CCN([C@@H]2Cc3ccc(NC(=O)c4cccc(C)c4-c4ccc(C(F)(F)F)cc4)cc3C2)CC1` [Example 14, (R)-6-Methyl-4′-trifluoromethyl-1,1′-biphenyl-N-[2-[4-(methoxycarbonyl)-piperazino]indan-5-yl]-2-carboxamide] registered a melting point of 163 to 164 °C.

In the case of `CCCC(=O)N1CCN(C2Cc3ccc(NC(=O)c4cccc(C)c4-c4ccc(C(F)(F)F)cc4)cc3C2)CC1` (stereo not drawn) [Example 21], the melting point was in the range of 173 to 176 °C.

`CC(=O)N1CCN(C2Cc3ccc(NC(=O)c4cccc(C(F)(F)F)c4-c4ccc(C(F)(F)F)cc4)cc3C2)CC1` (stereo not drawn) [Example 22] yielded a melting point of 184 to 186 °C.

On to `Cc1ccc(S(=O)(=O)N2CCN(C3Cc4ccc(NC(=O)c5cccc(C)c5-c5ccc(C(F)(F)F)cc5)cc4C3)CC2)cc1` (stereo not drawn) [Example 23], for which the melting point was 153 to 154 °C.

Molecule `Cc1cccc(C(=O)Nc2ccc3c(c2)CC(N2CCN(S(C)(=O)=O)CC2)C3)c1-c1ccc(C(F)(F)F)cc1` (stereo not drawn) [Example 24] registered a melting point of 205 to 208 °C.

Turning to `Cc1cccc(C(=O)Nc2ccc3c(c2)CC(N2CCN(C(=O)c4ccncc4)CC2)C3)c1-c1ccc(C(F)(F)F)cc1` (stereo not drawn) [Example 25], the melting point fell in the range of 158 to 160 °C.

With `COCC(=O)N1CCN(C2Cc3ccc(NC(=O)c4cccc(C)c4-c4ccc(C(F)(F)F)cc4)cc3C2)CC1` (stereo not drawn) [Example 26], the melting point lay within 161 to 162 °C.

Molecule `Cc1cccc(C(=O)Nc2ccc3c(c2)CC(N2CCN(C(=O)N(C)C)CC2)C3)c1-c1ccc(C(F)(F)F)cc1` (stereo not drawn) [Example 27] returned a melting point of 217 to 218 °C.

In turn, `Cc1cccc(C(=O)Nc2ccc3c(c2)CC(N2CCN(C(=O)c4ccccc4)CC2)C3)c1-c1ccc(C(F)(F)F)cc1` (stereo not drawn) [Example 28] came in with a melting point of 120 to 123 °C.

Turning to `Cc1cccc(C(=O)Nc2ccc3c(c2)CC(N2CCN(C(=O)COCc4ccccc4)CC2)C3)c1-c1ccc(C(F)(F)F)cc1` (stereo not drawn) [Example 29], the melting point lay within 160 to 161 °C.

`Cc1cccc(C(=O)Nc2ccc3c(c2)CC(N2CCN(C(=O)CO)CC2)C3)c1-c1ccc(C(F)(F)F)cc1` (stereo not drawn) [Example 30] returned a melting point of 86 to 88 °C.

As for `Cc1cccc(C(=O)Nc2ccc3c(c2)CC(N2CCN(Cc4ccccn4)CC2)C3)c1-c1ccc(C(F)(F)F)cc1` (stereo not drawn) [Example 31, 6-methyl-4′-trifluoromethyl-1,1′-biphenyl-N-[2-[4-(2-pyridinylmethyl)piperazino]indan-5-yl]-2-carboxamide], the melting point was in the range of 190 to 194 °C.

For `COC(=O)N1CCN(C2Cc3ccc(NC(=O)c4cccc(C)c4-c4ccc(F)cc4)cc3C2)CC1` (stereo not drawn) [Example 37], the melting point was in the range of 141 to 142 °C.

Molecule `COC(=O)N1CCN(C2Cc3ccc(NC(=O)c4cccc(OC)c4-c4ccc(C(F)(F)F)cc4)cc3C2)CC1` (stereo not drawn) [Example 38] came in with a melting point of 176 to 178 °C.

In the case of `COC(=O)N1CCN(C2Cc3ccc(NC(=O)c4ccccc4-c4ccccc4)cc3C2)CC1` (stereo not drawn) [Example 39], the melting point was 164 to 168 °C.

`COC(=O)N1CCN(C2Cc3ccc(NC(=O)c4ccccc4-c4ccc(C)cc4)cc3C2)CC1` (stereo not drawn) [Example 41]: the melting point fell in the range of 136 to 138 °C.

Test system in the next data set: not listed separately
Nature of the data set: in vivo lowering of plasma triglycerides and cholesterol. The following applies: dose of 5 mg/kg p.o.
Source text: as §1
Turning to `COC(=O)N1CCN([C@@H]2Cc3ccc(NC(=O)c4cccc(C)c4-c4ccc(C(F)(F)F)cc4)cc3C2)CC1` [Example 14, (R)-6-Methyl-4′-trifluoromethyl-1,1′-biphenyl-N-[2-[4-(methoxycarbonyl)-piperazino]indan-5-yl]-2-carboxamide], the plasma cholesterol result is reported as “lowers” and the plasma triglycerides result is listed as “lowers”.
